Patent US5750361A (priority 1995, dated 1998)
Entries after “also recorded” stand apart in the source; their conditions may differ. Structures can show the parent of a compound that is named as a salt.

Legend:
[^35 S-]PrP^C = format: biochemical, Syrian hamster
proteinase K = format: biochemical
[^35 S-]SHaPrP^C = [^35 S-]SHaPrP^C (Mesocricetus auratus, UniProt P04273); format: biochemical
[^35 S-]SHaPrP^C, sequence (P04273 23-254 limits assumed): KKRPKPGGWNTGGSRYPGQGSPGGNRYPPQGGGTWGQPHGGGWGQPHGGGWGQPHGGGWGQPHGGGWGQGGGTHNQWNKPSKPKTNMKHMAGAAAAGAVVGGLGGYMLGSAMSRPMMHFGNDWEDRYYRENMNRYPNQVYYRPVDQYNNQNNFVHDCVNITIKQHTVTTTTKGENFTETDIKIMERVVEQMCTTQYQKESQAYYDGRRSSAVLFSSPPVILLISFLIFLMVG

Structure (SMILES) | Requirement of Gdn-HCl for complex formation ([^35 S-]PrP^C) | Reduction of proteinase K activity (proteinase K) | Effect of Sarkosyl on PrP^C /PrP peptide complexes ([^35 S-]SHaPrP^C)
N=C(N)N [Gdn-HCl, guanidine hydrochloride] | seemed to be essential | ~ 90% | –
CCCCCCCCCCCC(=O)N(C)CC(=O)O [Sarkosyl] | – | – | disrupted the prion protein complexes and rendered the PrP^C sensitive to protease activity; also recorded: disrupted the PrP^C /PrP peptide complexes and rendered the PrP^C sensitive to protease activity
